{"source": "patent US20170119020A1", "about": "“METHOD OF FEEDING AN ANIMAL” (CARGILL, INCORPORATED, priority 2014, published 2017)", "key": {"sows (PIC)": {"system": "sows (PIC)", "test": "Sow performance (Example 10)", "format": "in vivo, pig", "details": "for Culled sows, n: reproductive failure: 13 sows; for Wean-to-remate interval / Weaning-to-estrus interval: Subsequent performance; for Farrowing rate (%), subsequent performance: next cycle", "description": "The trial was conducted at a farm in Poland. In general the housing and management conditions on the chosen workplace were considered representative for the geographical region. The breeding, gestation, and farrowing facilities of the farm were fully enclosed buildings with rooms that were ventilated and heated to maintain a minimum comfort zone temperature for the sows. Testing was performed on sows (primiparous and multiparous) of the same type of crossing (PIC). The trial comprised 52 sows in a system of continuous farrowing. Each group was consist of 13 animals. The trial ran from day 1 of pregnancy to remating in the next cycle. There were two dietary compositions: LP 0-90 d, LK-90 d of gestation-weaning. Feed fed throughout the study was manufactured in the feed mill of the farm. The feed produced was complete feeds according to the standard feeding management procedures on the participating farm. Feed consistency was mash. […] Each group was fed with complete diets for pregnant sows (0-90 d) and for lactation sows (90 d of gestation-weaning) with different inclusion of vitamin E and tested product (see TABLE 43A) and lactation diets (see TABLE 43B) The performance following criteria were monitored during the trial: (i) Sows response criteria (actual parity, farrowing rate, culled sows—number and reasons, wean-to-mating interval, farrowing rate in the next cycle); (ii) litter response criteria (number of piglets, total, alive, stillborn, mummies; weight of piglets and litters; survival). The following biochemical (blood) criteria were monitored during the trial for the sows (mating, farrowing and weaning), piglets 21st day: (i) glutathione peroxidase (GPx) activity; (ii) superoxide dismutase (SOD) activity; (iii) total antioxidant status (TAS); (iv) vitamin E content; (v) vitamin A content."}, "[1]": {"system": "eggs and hatched chickens of Cobb broiler breeders", "test": "Hatchability, fertility and chick quality of eggs of Example 1 (Example 2)", "format": "in vivo, chicken", "description": "The eggs were stored based on breeder pen and storage day. Eggs were allocated to twelve trays and nine blocks, with each block representing a storage day. At E17, all eggs were candled and at E18, eggs were transferred from the incubator […] to […] baskets. […] (64.4° F.) and a relative humidity of 75%. At the start of the incubation period, the eggs were weighed and allocated into blocks, each block representing a storage day. Each block consisted of twelve experimental units, with each experimental unit indicating a group of ten eggs. Only intact eggs were included; cracked, dirty, or eggs with deformed shells were excluded from the experiment. The eggs were placed in a NatureForm NMC 2340 Incubator with automatic control of temperature and relative humidity. From E0 until E18, the eggs were placed in setter trolleys, which consist of two shelves with a capacity for thirteen trays each. Each tray has three flats of thirty eggs. During this period, the incubator start temperature was set to 37.5° C. and relative humidity to 54%. […] After the setter period (E0-E18), eggs were transferred to baskets in the […] based on the blocking structure in the setter. The eggs were placed into subdivisions of a hatching crate, per replicate, and following tray order per block. Each […] trolley has twelve baskets with a capacity for 180 eggs each. […] Egg weights were recorded per experimental unit at E0. At hatch (E21) the number of dead chickens, dead embryos and […] (internal and external) were recorded. Remaining non-hatched eggs were opened to determine age and cause of death. The number of hatched chickens was recorded per replicate, as well as average chick weight. Sex was determined by cloaca sexing, performed by a professional chicken-sexer. Hatchability was calculated as percentage of total and of fertile eggs (eggs which contained living embryos after E17). […] Only chickens with an average body weight, completely dry, showing active movement and with a good navel score were selected. […] Sample chickens were individually weighed and killed by cervical dislocation to measure remaining yolk-sac weights, yolk-free body mass (“YFBM”), chick length, and shank length of both shanks. Relative asymmetry was calculated according to the following formula: RA=(|L-R|/[(L+R)/2])×100."}, "sows and piglets": {"system": "sows and piglets", "test": "Superoxide dismutase (SOD) activity in serum of sows and piglets (Example 10)", "format": "in vivo, pig", "details": "for Activity of superoxide dismutase (SOD) in serum of piglets: piglets at 21 days", "from_the_text": "The performance following criteria were monitored during the trial: (i) Sows response criteria (actual parity, farrowing rate, culled sows—number and reasons, wean-to-mating interval, farrowing rate in the next cycle); (ii) litter response criteria (number of piglets, total, alive, stillborn, mummies; weight of piglets and litters; survival). The following biochemical (blood) criteria were monitored during the trial for the sows (mating, farrowing and weaning), piglets 21st day: (i) glutathione peroxidase (GPx) activity; (ii) superoxide dismutase (SOD) activity; (iii) total antioxidant status (TAS); (iv) vitamin E content; (v) vitamin A content.\nTo determine the oxidative status, the blood samples were collected from sows and piglets into tubes with lithium anticoagulant—received whole blood for analysis. At the same time blood samples were taken for blood clot. They were centrifuged (1500 rpm, 15 Temp. 4° C.) and obtained serum was pipetted into separate tubes.\nIn studies of oxidative status of sows and piglets were used suitable to each of the indicators, the reagent kits from Sigma-Aldrich. Determination was made in accordance with the descriptions of the rules and procedures specified by the manufacturer.\nThe content of the TAS (total antioxidant status) were determined using the Antioxidant assay kit (Cat. No CS0790), the activity of SOD (superoxide dismutase) was determined using SOD determination kit 19160, the activity of GPx (glutathione Peroxide assai Cellular Activity Kit) Cat. No CGP1. The content of vitamins A and E by McMurray and Blanchflower 1979 (Journal of Chromatography 178, 525-531.). TAS\nSerum samples (20 ul) in duplicate were incubated at 37° C. for 20 minutes with the working solution WST (tetrazolium sodium salt, 2-(4-lodophenyl)-3 (4-nitrophenyl0-5-(2,4-disulfophenyl) 2H-tetrazolium, monosodium salt) (200 pl) and the enzyme working solution (20 pl). Simultaneously sample blanks were performed (two reagents, and blank for each sample) and a calibration curve based on serial dilutions of SOD in a range of 200 to 0,001 U/ml. Absorbance of the blank, standards and test samples read on a spectrophotometer at a wavelength of 450 nm. WST produces a water-soluble formazan dye upon reduction with a superoxide anion. The rate of the reduction with O2 are linearly related to the xanthine oxidase (XO) activity. The SOD activity is measured as the degree of blocking the formation of the formazan dye."}, "[2]": {"details": "Group 2: vitamin E 50/75 mg/kg diet"}, "[3]": {"details": "Group 3: vitamin E 100/150 mg/kg diet"}, "[4]": {"details": "eggs of 28-29 week breeders of Example 1"}}}
{"smiles": "Cc1c(C)c2c(c(C)c1O)CCC(C)(CCCC(C)CCCC(C)CCCC(C)C)O2", "note": "(racemic) [Vitamin E, DL-α-tocopherol]", "values": [{"measurement": "Farrowing rate (%)", "setting": "sows (PIC); [2]", "result": 84.62, "unit": "%"}, {"measurement": "Culled sows, n: reproductive failure", "setting": "sows (PIC); [2]", "result": 2}, {"measurement": "Farrowing rate (%)", "setting": "sows (PIC); [3]", "result": 84.62, "unit": "%"}, {"measurement": "Culled sows, n: reproductive failure", "setting": "sows (PIC); [3]", "result": 2}, {"measurement": "Wean-to-remate interval", "setting": "sows (PIC); [2]", "result": 9.89, "unit": "days"}, {"measurement": "Weaning-to-estrus interval", "setting": "sows (PIC); [2]", "result": 5.09, "unit": "days"}, {"measurement": "Wean-to-remate interval", "setting": "sows (PIC); [3]", "result": 7.70, "unit": "days"}, {"measurement": "Weaning-to-estrus interval", "setting": "sows (PIC); [3]", "result": 5.64, "unit": "days"}, {"measurement": "Farrowing rate (%), subsequent performance", "setting": "sows (PIC); [2]", "result": 80.00, "unit": "%"}, {"measurement": "Farrowing rate (%), subsequent performance", "setting": "sows (PIC); [3]", "result": 90.91, "unit": "%"}, {"measurement": "Chick Weight", "setting": "[1]; at hatch", "result": 42.4, "unit": "g"}, {"measurement": "Chick Weight", "setting": "[1]; dissected chickens", "result": 41.3, "unit": "g"}, {"measurement": "Chick length", "setting": "[1]; dissected chickens", "result": 17.9, "unit": "cm"}, {"measurement": "Relative Assymetrie (shank)", "setting": "[1]; dissected chickens", "result": 1.59}, {"measurement": "YFBM (yolk free body mass)", "setting": "[1]; dissected chickens", "result": 36.2, "unit": "g"}, {"measurement": "Yolk weight", "setting": "[1]; dissected chickens", "result": 4.92, "unit": "g"}, {"measurement": "Relative Chick Weight^1", "setting": "[1]; dissected chickens, expressed as percentage of average egg weight", "result": 70.7, "unit": "%"}, {"measurement": "Relative Chick Weight^2", "setting": "[1]; dissected chickens, expressed as percentage of chick weight", "result": 11.8, "unit": "%"}, {"measurement": "Fertility", "setting": "[1]; [4]", "result": 92.6, "unit": "%"}, {"measurement": "Hatchability of fertile", "setting": "[1]; [4]", "result": 95.6, "unit": "%"}, {"measurement": "Hatchability of total", "setting": "[1]; [4]", "result": 88.6, "unit": "%"}, {"measurement": "Relative chick weight", "setting": "[1]; expressed as percentage of average egg weight", "result": 72.5, "unit": "%"}, {"measurement": "Activity of superoxide dismutase (SOD) in serum of sows", "setting": "sows and piglets; Breeding, Group 2: vitamin E 50/75 mg/kg diet", "result": 71.43, "unit": "U/ml"}, {"measurement": "Activity of superoxide dismutase (SOD) in serum of sows", "setting": "sows and piglets; Breeding, Group 3: vitamin E 100/150 mg/kg diet", "result": 73.28, "unit": "U/ml"}, {"measurement": "Activity of superoxide dismutase (SOD) in serum of sows", "setting": "sows and piglets; Farrowing, Group 2: vitamin E 50/75 mg/kg diet", "result": "77.14^B U/ml"}, {"measurement": "Activity of superoxide dismutase (SOD) in serum of sows", "setting": "sows and piglets; Farrowing, Group 3: vitamin E 100/150 mg/kg diet", "result": "79.60^AB U/ml"}, {"measurement": "Activity of superoxide dismutase (SOD) in serum of sows", "setting": "sows and piglets; Weaning, Group 2: vitamin E 50/75 mg/kg diet", "result": "79.50^C U/ml"}, {"measurement": "Activity of superoxide dismutase (SOD) in serum of sows", "setting": "sows and piglets; Weaning, Group 3: vitamin E 100/150 mg/kg diet", "result": "90.93^B U/ml"}, {"measurement": "Activity of superoxide dismutase (SOD) in serum of piglets", "setting": "sows and piglets; Group 2: vitamin E 50/75 mg/kg sow diet", "result": "100.61^B U/ml"}, {"measurement": "Activity of superoxide dismutase (SOD) in serum of piglets", "setting": "sows and piglets; Group 3: vitamin E 100/150 mg/kg sow diet", "result": "129.54^Ab U/ml"}]}
